Experimental data from PMC10872402, “HTS discovery of PARP1-HPF1 complex inhibitors in cancer” (SLAS discovery : advancing life sciences R & D, 2023).
Values joined by “and” are separate entries in the source; they are usually repeats but may differ in a detail not shown here. Equal values may be shown once.

Columns and labels:
[1] = target: T1, PARP1–HPF1 complex (Homo sapiens, UniProt P09874+Q9NWY4); test: FP assay of PARP1–HPF1–DNA complex, PARP-directed library screen; assay type: biochemical
T1 construct: made in house
T1 sequence (P09874 whole entry): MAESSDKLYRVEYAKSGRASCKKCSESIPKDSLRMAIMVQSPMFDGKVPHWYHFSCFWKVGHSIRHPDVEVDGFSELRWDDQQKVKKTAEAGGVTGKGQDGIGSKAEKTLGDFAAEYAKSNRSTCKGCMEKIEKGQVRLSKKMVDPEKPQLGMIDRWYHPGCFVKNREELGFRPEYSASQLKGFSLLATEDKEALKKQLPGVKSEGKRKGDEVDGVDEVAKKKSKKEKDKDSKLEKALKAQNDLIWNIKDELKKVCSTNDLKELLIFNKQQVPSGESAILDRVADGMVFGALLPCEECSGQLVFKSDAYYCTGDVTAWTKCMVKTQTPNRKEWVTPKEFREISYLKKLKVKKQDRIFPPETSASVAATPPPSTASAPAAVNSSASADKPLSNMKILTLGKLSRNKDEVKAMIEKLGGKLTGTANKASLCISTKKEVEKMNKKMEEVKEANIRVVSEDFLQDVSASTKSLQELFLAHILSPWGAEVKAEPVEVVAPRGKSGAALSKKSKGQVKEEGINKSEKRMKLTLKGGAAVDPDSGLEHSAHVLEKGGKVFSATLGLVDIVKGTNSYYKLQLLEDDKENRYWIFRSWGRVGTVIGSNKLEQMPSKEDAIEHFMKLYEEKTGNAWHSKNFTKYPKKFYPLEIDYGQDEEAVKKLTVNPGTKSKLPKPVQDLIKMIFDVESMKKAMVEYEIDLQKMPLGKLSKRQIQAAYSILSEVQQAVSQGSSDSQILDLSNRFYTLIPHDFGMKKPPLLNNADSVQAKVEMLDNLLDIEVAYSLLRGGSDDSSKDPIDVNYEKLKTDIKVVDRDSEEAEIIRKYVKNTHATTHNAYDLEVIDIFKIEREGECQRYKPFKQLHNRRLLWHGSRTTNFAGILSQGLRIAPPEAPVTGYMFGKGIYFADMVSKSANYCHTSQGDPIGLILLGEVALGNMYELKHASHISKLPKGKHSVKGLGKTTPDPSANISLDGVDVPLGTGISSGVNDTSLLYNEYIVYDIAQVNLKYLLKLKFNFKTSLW
T1 sequence (Q9NWY4 whole entry): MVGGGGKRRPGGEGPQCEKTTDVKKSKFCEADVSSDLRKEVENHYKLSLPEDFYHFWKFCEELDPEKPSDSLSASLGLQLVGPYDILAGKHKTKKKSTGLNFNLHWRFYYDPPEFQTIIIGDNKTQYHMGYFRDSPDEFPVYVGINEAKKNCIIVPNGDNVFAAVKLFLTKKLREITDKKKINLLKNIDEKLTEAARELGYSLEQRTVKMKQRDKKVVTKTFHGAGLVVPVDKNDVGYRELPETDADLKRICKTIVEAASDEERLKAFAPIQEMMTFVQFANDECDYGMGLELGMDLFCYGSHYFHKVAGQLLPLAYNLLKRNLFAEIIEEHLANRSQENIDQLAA
Protocol: An Opentrons OT-2 robot was used for all the pipetting steps as described. First, 20 μL of binding buffer was placed into each well of the 384-well assay plate. Next, 10 μL of the pre-formed complex of PARP1 - HPF1 - DNA or PARP2 – HPF1 – DNA (prepared in binding buffer) was added to all wells. Next, 1 μL of the inhibitors from the 12-point dilution were added to the 384-well plate and was incubated with the protein - DNA for 30 min at room temperature (RT). The plate was then transferred to BMG Labtech CLARIOstar plate reader equipped with a syringe injector. The injector was used to add 10 μL of NAD^+ into all wells except for eight control wells. […] Final concentrations were 5 nM p18mer (fluorescein-labeled), 10 nM PARP1/2, 200 nM HPF1, 200 μM NAD^+, and 0.09 μM – 200 μM inhibitor. IC50 values were calculated using a nonlinear regression analysis (sigmoidal dose-response fitting with variable slope) with the following equation: Y = Bottom + (Top – Bottom)/(1 + 10(LOGIC50 – X) · HILL SLOPE) using GraphPad Prism.
We base our assay method on our previously described fluorescence polarization (FP) assay for measuring the activity of PARP1 [15]. […] (Fig. 2A). For the inhibition assay, the complex is incubated with potential inhibitors and the PARylation reaction is initiated by the addition of NAD^+. […]

[2] = tested on: SUM149PT tumor organoids; test: Tumor organoid cytotoxicity, CellTiter-Glo 3D; assay type: cell-based; details: Homo sapiens, 96 h, read-out: IC50 tumor organoid viability
Protocol: SUM149PT cells were plated at 2000 cells/well into 96-well Clear Round Bottom Ultra-Low Attachment plates (Cat. No. 7007, Corning, Corning, NY) in complete growth medium. Cell assay plates were centrifuged at 1000 RPM for 15 min to promote cellular aggregation, then 25 μL of cold Growth-Factor Reduced (GFR) Matrigel (10 %) was added per well for a final concentration of 2 %. […] Briefly, tumor organoids were transferred to 96-well CELLSTAR white solid bottom plates (Cat. No. 655083, Greiner Bio-One, Monroe, NC), 40 μL (1:1) of CellTiter-Glo 3D was added to each well and plates were then placed on an orbital shaker at 450 RPM for 45 min at room temperature. CellTiter-Glo 3D’s luminescence signal was assessed using the Envision microplate reader (Revvity, Waltham, MA) with a measurement time of 100 ms. The experiment was done with triplicate organoids per condition, and IC50.values were calculated as described above.

[3] = target: T1, PARP1–HPF1 complex; test: FP assay of PARP1–HPF1–DNA complex, dose response of hits from the 10,000 compound pilot HTS; assay type: biochemical; details: dose response of HTS hits in duplicate; 10 nM PARP1, 100 nM HPF1, 15 min
Protocol: A Revvity G3 Explorer collaborative robot equipped with a freezer containing the drug library, a Revvity Janus liquid handler, and a Revvity Envision was used to carry out the screen. A ChemBridge diversity library containing 10,000 compounds was used for screening. Two identical daughter plates (2 mM) were generated, one for HTS and one for cherry-picking hits identified from HTS. The drug library was maintained in a LiCONiC STX500-DF Deep Freezer at −20 °C with 80 % N2. Binding buffer (13 μL) with 0.04 % DMSO was added to columns 23 and 24 of 32 384-well plates (Corning 3575). Next, 24.5 μL binding buffer was added to all wells on the plates. Then, 0.5 μL of 2 mM stock solutions for each of the 10,000 compounds was added to separate wells, giving a final concentration of 20 μM, excluding columns 1, 2, 23, and 24. Afterwards, 12.5 μL premix (PARP1 – HPF1 – DNA, at 10 nM PARP1, 100 nM HPF1, and 5 nM FITC-labeled p18mer DNA) was added to all wells. Next, 12.5 μL of 2 mM NAD^+ was added to each well.
Dose response curves for the hits were performed using the same Revvity robot system as for the initial screen. Binding buffer (13 μL) with 0.04 % DMSO was added to columns 23 and 24 of 32 different Corning (Cat. No. 3575) plates. Next, 25 μL binding buffer was added to all wells on the plates. Cherry-picked compound plates generated from the compound source used in the initial HTS were used to add 1 compound per column from 20 to 160 nM in duplicate with 2x serial dilution using a Revvity FlexDrop iQ instrument. A 12.5 μL premix (PARP1 – HPF1 – DNA, as above) was added to all wells. Afterwards, 12.5 μL of 2 mM NAD^+ was added to each well and plates were incubated for 15 min at RT. The FP signal was read as above, and data for screened compounds was normalized between 100 % (positive control, […]) and 0 % (negative control, rows 1 and 2). Dose response curves were plotted and fit using GraphPad Prism with a non-linear regression analysis as described above.

[4] = tested on: PAR in the nucleus of SUM149PT cells; test: PAR immunofluorescence in SUM149PT cells with MMS; assay type: cell-based; details: 10 and 12.5 μM, 5 h, 0.01 % MMS; for amount of PAR in the nucleus: p<0.05 for 145 and 88, p<0.001 for 4
Protocol: 18,000 SUM149PT cells were seeded into a 96 well PhenoPlate (Revvity) and allowed to adhere overnight. Cells were then treated with the selected hits at a concentration of 10 or 12.5 μM and 0.01 % final concentration of MMS for 5 h. The medium was then aspirated, and cells were fixed with 4 % paraformaldehyde for 15 min at room temperature (RT). After washing twice with PBS, cells were incubated with 0.3 % Triton X-100 for 15 min followed by another washing step. To decrease unspecific binding of the antibodies, cells were blocked in 5 % milk for 30 min at RT. Afterwards, cells were incubated with the anti-PAR primary antibody at a 1:1000 dilution for 2 h at RT. Cells were washed again and incubated with a goat anti-mouse AlexaFluor 647 secondary antibody at a 1:500 dilution for […] at RT. Finally, cells were washed, stained with Hoechst 33342 (1:1000), and imaged using a 40x water objective on the Phenix Plus High-Content Screening (HCS) System (Revvity). Each bar graph is representative of two experiments, each with three replicates of whole-well analysis per condition. The reported data represents the average of each cell within the replicates, plotted with standard deviation error bars.

[5] = tested on: cancer cells; set-up: method as in PMID 35259019; details: read-out: IC50 cytotoxic activity; cited from earlier work

Compound	IC50 [3]	inhibition of PARylation [4]	amount of PAR in the nucleus [4]	further results
NC(=O)c1ccccc1 [benzamide, reference compound]	–	–	–	IC50 [1]: 14 µM
O=C(COc1ccccc1)c1cn(CC(=O)N2CCOCC2)c2ccccc12 [compound 4]	~1 µM and 1.07 µM	dose-dependent inhibition of PARylation	reduced PAR at all doses	IC50 [2]: 251 µM
CCNCC#CCOc1ccc(Br)cc1 [compound 60]	7.77 µM	–	–	–
COc1cccc(-c2nc(CC(=O)Nc3ccc(C)c(C)c3)no2)c1 [compound 88]	13.5 µM	dose-dependent inhibition of PARylation	decreased the amount of PAR in the nucleus at the higher dose tested	–
CCNCC#CCOc1cccc(C(F)(F)F)c1 [compound 89]	13.8 µM	–	–	–
CNCC#CCOc1ccc(Cl)c(C)c1 [compound 110]	20.4 µM	–	–	–
CCNC/C=C/COc1ccccc1OCC [compound 116]	22.6 µM	–	–	–
N#Cc1c(NC(=O)C#Cc2ccccc2)sc2c1CCC2 [compound 145]	36.8 µM	dose-dependent inhibition of PARylation	decreased the amount of PAR in the nucleus at the higher dose tested	–
N#Cc1sc2nc(-c3ccc(F)cc3F)ccc2c1N [compound 151]	40.7 µM	–	–	–
O=C(c1cc(Cc2n[nH]c(=O)c3ccccc23)ccc1F)N1CCN(C(=O)C2CC2)CC1 [olaparib, reference compound]	–	–	–	IC50 [2]: 85 µM; IC50 [5]: > 50 µM
